Reference: article PMC11583740, “Genotype-specific effects of elamipretide in patients with primary mitochondrial myopathy: a post hoc analysis of the MMPOWER-3 trial” (Orphanet Journal of Rare Diseases, 2024)

Experiments:
[1] = test system: subjects with Barth Syndrome; details: after approximately 36 weeks in the 168-week open-label phase; n = 8; p = 0.02; cited from earlier work
Source text: NuPOWER was designed to evaluate the efficacy and tolerability of elamipretide in nPMD subjects, with the primary efficacy endpoint being distance walked (meters) on the 6MWT [11]. Elamipretide was also studied in subjects with Barth Syndrome (TAZPOWER, SPIBA-201, NCT03098797), which ...

[2] = test system: adult patients with primary mitochondrial myopathy (PMM); details: elamipretide 40 mg s.c. once daily; nDNA cohort n = 59; placebo 0.3 m; p = 0.03; previously published post-hoc analysis; cited from earlier work
Source text: Baseline functional characteristics of these patients is described elsewhere. At week 24, subjects in ...

[3] = test system: adult patients with primary mitochondrial myopathy (PMM); assay: Six-Minute Walk Test (6MWT) in the MMPOWER-3 Phase 3 trial, post hoc analysis by genotype; assay type: in vivo, human
Protocol: Full details of MMPOWER-3 have been previously described. In brief, MMPOWER-3 was a 24-week, randomized (1:1), double-blind, parallel-group, placebo-controlled clinical trial for adult patients with PMM, in which subjects received elamipretide 40 mg subcutaneously once daily or placebo [6]. In the original analysis of MMPOWER-3, subjects were stratified by the type of pathogenic DNA variant (nDNA vs mtDNA) determined to be the primary cause of PMM as approved by the adjudication committee. Pathogenic DNA variants causing PMM were subclassified as causing mtDNA or nDNA disorders. The prespecified exploratory analysis was conducted to further examine the effects of elamipretide on the change from baseline to week 24 in the 6MWT by genetic subgroups. Subject demographics at baseline have been previously published in detail.
In the original analysis of MMPOWER-3, the efficacy of elamipretide was analyzed by genetic pathogenic variant subclass (mtDNA vs. nDNA) utilizing a mixed model repeated measures (MMRM). In the new exploratory analysis, the effect of elamipretide on the least squares (LS) mean change from baseline in distance walked on the 6MWT at 4 weeks, 12 weeks, and end of treatment (week 24) was examined as a function of gene variants using subjects from the MMPOWER-3 per-protocol population who successfully completed the trial. The analysis evaluated 6MWT results by specific mtDNA and nDNA genotypes. Efficacy in the mtDNA replisome subgroup was further assessed by the presence of the chronic progressive external ophthalmoplegia (CPEO) as a phenotype.

[4] = test system: adult patients with primary mitochondrial myopathy (PMM); details: post-hoc genetic subgroup analysis of the co-primary endpoint; previously published; cited from earlier work
Protocol: Elamipretide is the first experimental therapeutic compound progressing to a Phase 3 clinical trial in patients with PMM (MMPOWER-3). This trial followed the Phase 1/2 (MMPOWER-1) and Phase 2 (MMPOWER-2) clinical trials, in which treatment with elamipretide was analyzed in patients with PMM.

elamipretide
Improvement in 6MWT, Barth Syndrome [1]: 95.9 m | 6MWT improvement, nDNA cohort [2]: 25.2 m | 6MWT change from baseline, MT-TL1 pathogenic variants ([3]; elamipretide 40 mg s.c. once daily, 24 weeks, n = 21, placebo (n = 28) 42.4 m): 25.3 m | 6MWT improvement (change from baseline), mtDNA replisome post-hoc cohort ([3]; elamipretide 40 mg s.c. once daily, mtDNA replisome cohort, placebo 2.0 ± 8.6 m, p = 0.06): 25.2 ± 8.7 m | LS mean (SE) change from baseline in 6MWT, replisome variants with CPEO phenotype ([3]; elamipretide 40 mg s.c. once daily, week 24, n = 18, baseline mean 316.5 ± 17.5, placebo (n = 14) −8.0 ± 10.7 m, p = 0.0024): 37.3 ± 9.5 m | LS mean (SE) change from baseline in distance walked on 6MWT, mtDNA pathogenic variants ([3]; elamipretide 40 mg s.c. once daily, week 24, n = 73, placebo (n = 73) 24.1 ± 6.3 m): 14.9 ± 6.4 m | Between-group difference in 6MWT change, mtDNA pathogenic variants ([3]; week 24, elamipretide vs placebo, difference in favor of placebo): 9.2 m | 6MWT difference elamipretide vs placebo, single mtDNA deletions ([3]; week 24, n = 49): no observable differences | PMMSA TFS, nDNA cohort compared with mtDNA cohort [4]: did not demonstrate a differential effect
